Laboratory results: patent US20190231768A1, “P[…] TREATING DRUG INDUCED DYSKINESIAS” (PRILENIA THERAPEUTICS DEVELOPMENT LTD., priority 2017, published 2019)
Like-named read-outs stand apart in the source and are kept apart here.

What was measured:
D2R [1] = biological target: D2R (Homo sapiens, UniProt P14416); conditions: human 67.5 mg bid; based on human PET data and PK profile
σ1R [2] = biological target: T1, σ1R (Homo sapiens, UniProt Q99720); conditions: human 67.5 mg bid; based on human PET data and PK profile
[3] = test system: human subject afflicted with a DIMD; conditions: 45, 90, 135 or 180 mg/day oral, add-on
[4] = test system: human subject afflicted with LID; conditions: greater than 100 mg/day oral, add-on to levodopa
Excerpt: The therapy provides efficacy in treating the patient without undue adverse side effects or affecting the safety of the treatment: […]

D2R [5] = biological target: T2, D2R (Rattus norvegicus, UniProt P61169); conditions: cited from earlier work
sigma-1 receptor (S1R) = sigma-1 receptor (S1R) (Homo sapiens, UniProt Q99720)
Excerpt: (§1) The study consisted of a screening period of up to 8 weeks prior to first dosing of tracer, including a Ti three-dimensional magnetization-prepared rapid acquisition gradient echo (MPRAGE 3D) magnetic resonance imaging (MRI) scan (visit 1), a study period of up to 4 weeks (including visits 2 and 3), and a follow-up visit (visit 4). […] Each dose cohort comprised up to 4 subjects. Although every subject of each dose cohort was expected to receive the same dose, it was also possible to change the dose level within a cohort due to the adaptive design of the study.

[6] = biological target: dopamine-2 receptor (D2R) (Homo sapiens, UniProt P14416); conditions: 90 mg
Excerpt: as §1

D2R [7] = biological target: T2, D2R; experiment: in vivo; conditions: po, read-out: % D2R occupancy
Excerpt: (§2) NHP σ1R occupancy data are extrapolated from in vitro binding investigations with 3H-fluspidine, known and specific σ1R tracer, against human σ1R.

σ1R [8] = biological target: T1, σ1R; experiment: in vivo
Excerpt: as §2

σ1R [9] = biological target: σ1R (Rattus norvegicus, UniProt Q9R0C9); experiment: in vivo; conditions: po, read-out: % σ1R occupancy
Excerpt: as §2

[10] = test system: human subject afflicted with LID; conditions: 45, 90, 135 or 180 mg/day oral, add-on to amantadine
D2R [11] = conditions: for % D2R occupancy: NHP, based on 11C-raclopride PET
Excerpt: as §2

HD patients = conditions: cited from earlier work; for TMS change from baseline vs placebo: HD stage 1 (baseline TFC≥11), post hoc

T1 sequence (Q99720 whole entry): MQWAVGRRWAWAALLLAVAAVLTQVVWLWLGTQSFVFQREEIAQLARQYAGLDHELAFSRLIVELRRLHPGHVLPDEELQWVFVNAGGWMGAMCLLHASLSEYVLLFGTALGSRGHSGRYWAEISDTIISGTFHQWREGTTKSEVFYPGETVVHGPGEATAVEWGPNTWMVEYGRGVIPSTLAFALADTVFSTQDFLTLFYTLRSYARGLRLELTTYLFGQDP
Sequence of sigma-1 receptor (S1R) (Q99720 whole entry): as above
T2 sequence (P61169 whole entry): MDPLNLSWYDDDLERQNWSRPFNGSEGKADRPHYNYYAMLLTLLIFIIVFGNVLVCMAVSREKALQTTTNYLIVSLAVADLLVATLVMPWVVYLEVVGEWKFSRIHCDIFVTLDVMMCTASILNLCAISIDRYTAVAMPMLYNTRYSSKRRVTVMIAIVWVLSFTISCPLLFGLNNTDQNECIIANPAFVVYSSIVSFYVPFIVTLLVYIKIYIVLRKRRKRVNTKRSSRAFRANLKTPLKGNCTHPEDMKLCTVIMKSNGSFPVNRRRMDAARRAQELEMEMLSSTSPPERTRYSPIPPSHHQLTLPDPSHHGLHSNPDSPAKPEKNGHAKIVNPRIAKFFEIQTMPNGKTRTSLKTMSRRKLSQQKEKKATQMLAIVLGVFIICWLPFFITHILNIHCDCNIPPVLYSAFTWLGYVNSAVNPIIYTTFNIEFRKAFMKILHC
Sequence of dopamine-2 receptor (D2R) (P14416 whole entry): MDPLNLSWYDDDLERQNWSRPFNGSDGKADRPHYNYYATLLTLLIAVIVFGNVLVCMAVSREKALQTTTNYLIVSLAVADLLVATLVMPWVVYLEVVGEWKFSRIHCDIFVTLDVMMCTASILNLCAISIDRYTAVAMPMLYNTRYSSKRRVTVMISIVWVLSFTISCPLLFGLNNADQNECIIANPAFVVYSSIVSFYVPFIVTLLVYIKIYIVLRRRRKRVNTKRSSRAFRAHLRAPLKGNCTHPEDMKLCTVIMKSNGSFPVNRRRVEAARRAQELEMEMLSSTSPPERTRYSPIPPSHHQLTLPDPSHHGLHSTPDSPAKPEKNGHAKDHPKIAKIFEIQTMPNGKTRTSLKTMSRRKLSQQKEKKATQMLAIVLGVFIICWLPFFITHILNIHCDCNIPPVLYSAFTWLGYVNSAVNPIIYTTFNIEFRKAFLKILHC
Sequence of D2R (Homo sapiens, UniProt P14416) (P14416 whole entry): as above
Sequence of σ1R (Rattus norvegicus, UniProt Q9R0C9) (Q9R0C9 whole entry): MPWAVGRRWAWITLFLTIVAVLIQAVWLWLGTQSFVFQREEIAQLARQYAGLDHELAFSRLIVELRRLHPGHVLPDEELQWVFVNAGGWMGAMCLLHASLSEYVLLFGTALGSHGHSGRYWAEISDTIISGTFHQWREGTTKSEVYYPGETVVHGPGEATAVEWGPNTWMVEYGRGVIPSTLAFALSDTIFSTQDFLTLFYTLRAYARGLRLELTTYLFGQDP

CCCN1CCC(c2cccc(S(C)(=O)=O)c2)CC1 [pridopidine, 4-(3-(methylsulfonyl)phenyl)-1-propylpiperidine]
occupancy of the dopamine receptors (DARs) (estimated) (D2R [1]): minimal occupancy | S1R occupancy (estimated) (σ1R [2]): fully occupy the S1Rs | symptoms of DIMD [3]: effective (provides at least an additive effect or more than an additive effect) | anti-parkinsonian benefit of L-DOPA [4]: does not affect the anti-parkinsonian benefit of L-DOPA | bad quality on-time evoked by levodopa [4]: improves the bad quality on-time | symptoms of dyskinesia [4]: effective in improving symptoms of dyskinesia | % D2R occupancy (D2R [5]; 3 mg/kg PO): 0% | % D2R occupancy (D2R [5]; 15 mg/kg PO): 0% | difference in drug-induced S1R occupancy between HV and HD patients (sigma-1 receptor (S1R); 90 mg): no differences | S1R occupancy (sigma-1 receptor (S1R); healthy volunteers, single oral dose 45 mg, 2 h after dosing): ~100% | S1R occupancy (sigma-1 receptor (S1R); healthy volunteers, single oral dose 90 mg, 2 h after dosing): ~100% | S1R occupancy (sigma-1 receptor (S1R); single oral dose 1 mg): approximately 40% | D2R blockage [6]: 3% | receptor occupancy at 60 mg/kg (D2R [7]): 45% | % σ1R occupancy (σ1R [8]; NHP, 15 mg/kg PO, extrapolated from in vitro binding, 15 mg/kg): >80% | receptor occupancy at 7 mg/kg (σ1R [8]; po, read-out: % σ1R occupancy, NHP, 7 mg/kg PO, extrapolated from in vitro binding): 60 to 80% | receptor occupancy at 15 mg/kg (σ1R [8]; po, read-out: % σ1R occupancy, NHP, 15 mg/kg PO, extrapolated from in vitro binding): > 85% | receptor occupancy at 20 mg/kg (σ1R [8]; po, read-out: % σ1R occupancy, NHP, 20 mg/kg PO, extrapolated from in vitro binding): > 80% | receptor occupancy at 30 mg/kg (σ1R [8]; po, read-out: % σ1R occupancy, NHP, 30 mg/kg PO, extrapolated from in vitro binding): > 80% | receptor occupancy at 30 mg/kg (σ1R [8]; read-out: S1R occupancy (expected), high, effective dose (30 mg/kg, or 20 mg/kg in study 1)): > 80% | receptor occupancy at 20 mg/kg (σ1R [8]; read-out: S1R occupancy (expected), low, ineffective doses (7 and 15 mg/kg (study 1), 20 mg/kg in study 2)): > 80% | receptor occupancy at 60 mg/kg (σ1R [9]): > 85% | symptoms of dyskinesia [10]: effective (provides at least an additive effect or more than an additive effect) | % D2R occupancy (D2R [11]; 7 mg/kg PO): <15% | % D2R occupancy (D2R [11]; 15 mg/kg PO): 15% | % D2R occupancy (D2R [11]; 20 mg/kg PO): 25% | % D2R occupancy (D2R [11]; 30 mg/kg PO): 40% | occupancy of low affinity dopamine receptors (expected) (D2R [11]; high, effective dose (30 mg/kg, or 20 mg/kg in study 1)): about 40% | occupancy of low affinity dopamine receptors (expected) (D2R [11]; low, ineffective doses (7 and 15 mg/kg (study 1), 20 mg/kg in study 2)): about 10% | D2R-occupancy (D2R [11]; macaques, effective doses (20 to 30 mg/kg)): 25-40% | difference in TFC score decline vs placebo (HD patients; 45 mg bid, 52 weeks, nominal p=0.003): 0.87 (95% confidence interval: 0.29-1.45) | TMS change from baseline vs placebo (HD patients; 45 mg bid, weeks 26 or 52): trend towards improvement | TMS change from baseline vs placebo (HD patients; 112.5 mg bid, 52 weeks): no improvement | TFC decline (HD patients; high dose (>90 mg bid)): failed to show improvement | TMS efficacy compared to placebo or the 45 mg bid dose (HD patients; high doses (≥67.5 bid)): none of the high doses of pridopidine (≥67.5 bid) showed improved efficacy
